Measured values published in patent publication US11707448B2, “Combination therapies for the treatment of cancer” (Eisai R&D Management Co., Ltd., priority 2014, dated 2023).

Key:
Assay type in all cases: in vivo, mice
CT26 tumors [1] = assay: Bilateral CT26 tumor model (abscopic effect)
Method: FIG. 5A to FIG. 5B. Anti-tumor effect of ER-886046/radiation in a bilateral tumor model. Two similar-sized CT-26 tumors were grown in a host by injecting CT26 cells subcutaneously on both right and left flanks of Ba1B/c mice. Radiation was applied to the right flank tumor on both day 9 and day 13 as indicated by arrows in panel A. ER-886046 was administered daily po to the animals at a dose of 150 mg/kg as indicated by the bars. ER-886046 was dosed to animals from day 9 to day 27. Panel shown in FIG. 5A) Average size of the right flank tumor that received radiation and ER-886046. Panel shown in FIG. 5B) Average size of the left flank tumor that received no radiation (radiation administered only to the right flank tumor).
Abscopic effect of the combination treatment of ER-886046 and radiation in an animal model. Induction of anti-tumor immune response can be systemic and thus highly valuable for treating metastatic cancer, which has multiple lesions in one host. To mimic the large metastatic lesions in mice, we simultaneously grew CT26 tumors on both sides of an individual mouse by subcutaneously injecting cancer cells. The tumors on the right side of the mice were treated with both radiation and ER-886046. The tumors on the left side of the mice received ER-886046 only.

[2] = test system: immune cells in the CT26 tumors; assay: Flow cytometry of intratumoral immune cells in CT26 tumors
Method: FIG. 7A to FIG. 7B. Radiation and ER-886046 worked synergistically to modify the intratumoral immunity. Panel shown in FIG. 7A) Quantification of myeloid cells (CD11b^+) and cytotoxic T cells (CD8^+) in the CT26 tumors that received 9 Gy alone, 9 Gy+ER-886046, or vehicle alone. Panel shown in FIG. 7B) Quantification of myeloid-derived suppressor cells (MDSC cells, CD11b^+Gr1^+) in the tumors. Radiation was given once to the tumors on the day of randomization, while ER-886046 was administered po daily administrated at 150 mg/kg to the animals for 7 consecutive days after randomization. The tumors were analyzed by flow cytometry one day after the last dose of ER-886046. **, p<0.01; ns, not significant; student t-test.
Flow cytometry; CT26 tumors with or without treatments received were surgically resected and minced by physical pressure, followed by digestion with collagenase I at 1 mg/ml at 37° C. for 1 h. The single cell mixtures from the digestion were labelled by incubation with fluorescent antibodies against immune cell antigens and analysed by flow cytometry. Cell population calculation was performed by software FlowJo 7.6.

B16F10 melanoma tumors = assay: B16F10 melanoma model, ER-886046 with anti-CTLA4
Method: FIG. 8A to FIG. 8B. Synergistic anti-tumor activity of ER-886046 with anti-CTLA4 in B16F10 tumors. Panel shown in FIG. 8A) Anti-tumor growth activities of anti-CTLA4 and ER-886046 in B16F10 melanoma tumors growing in C57BL/6 mice. Panel shown in FIG. 8B) Animal body weight changes of the treatment groups. Anti-CTLA4 dosing: 200 μg for the first intravenous (iv) injection on day 3 after transplantation and 100 μg for the other three iv injections on days 6, 9 and 12 as indicated by the arrows. ER-886046 dosing: 150 mg/kg, po daily administration from day 3 to day 15 as indicated by the bars. *, p<0.05; **, p<0.01; ns, not significant; student t test.
(§1) Animal studies; In vitro cultured cancer cells were harvested and suspended in 100 μl of phosphate buffered saline at a cell concentration of 1.0×10^5 cells/ml and subcutaneously (sc) injected into the mice using a 26 g syringe on day 0. At the days post cell implantation as indicated in the figures, the mice were randomized based on the tumor size followed by treatments with radiation at 3 or 9 Gy dose per treatment, anti-PDL1 at 200 μg/mouse per intraperitoneal injection (ip), or anti-CTLA4 at 200 or 100 μg/mouse per ip injection with or without orally administration of ER-886046 at a dose of 150 mg/kg. The animals that were assigned to the treatment groups in individual study had close mean tumor weights in all groups. The tumor sizes were measured twice a week by a digital caliper (Mitutoyo Corp), and the volume was calculated using the formula (1×w^2)/2=mm^3, where 1 and w refer to the larger and smaller perpendicular dimensions collected at each measurement. Graphs of group tumor sizes (mean±SEM) and body weights (mean±SEM) versus time were plotted using software GraphPad Prism 6 (Lake Forest, Calif.). Student t-test and Gehan-Breslow-Wilcoxon test were used for statistical analysis.

CT26 tumors [3] = assay: CT26 subcutaneous tumor model, ER-886046 with radiation
Method: FIG. 1A to FIG. 1B. […] Panel shown in FIG. 1A) Average tumor sizes of the CT26 tumor-bearing mice that received 9 Gy radiation+ER-886046, 9 Gy radiation alone, or vehicle alone. Panel shown in FIG. 1B) Average animal body weight of the CT-26 tumor-bearing mice. Radiation treatment: 9 Gy single dose on day 9; ER-886046 dosing: 150 mg/kg, oral (po) administration daily from day 9 to day 32. Administration of radiation and ER-886046 to the tumor-bearing mice is indicated by the arrows and bars, respectively. N=10-12 per group. *, p<0.05, student t-test.
FIG. 2A to FIG. 2C. Tumor growth plots of the individual CT-26 tumors treated with radiation/ER-886046 or radiation alone. The animals are of the experiment described in FIG. 1A and FIG. 1B. Panel shown in FIG. 2A) Vehicle treatment group. Panel shown in FIG. 2C) Radiation plus ER-886046. N=10-12 per group. […] Radiation treatment: 9 Gy single dose on day 9; ER-886046 dosing: 150 mg/kg, oral (po) administration daily from day 9 to day 32. Each line represents an individual animal.
FIG. 3. Improved tumor growth suppression and animal survival by low dose radiation/ER-886046 compared with low dose radiation alone. Plots of animal survival status among indicated treatment groups. Radiation treatment: 3 Gy single dose on day 17; ER-886046 dosing: 150 mg/kg, po administration daily from days 17 to 45. […] N=10 per group. *, p<0.05; ***, p<0.001; Gehan-Breslow-Wilcoxon test.
as §1

[4] = ER-886046 150 mg/kg po daily day 9-32 + radiation 9 Gy single dose day 9

Compound: C[C@H](NC(=O)c1c(C(F)F)nn(C)c1Oc1cccc(C(F)(F)F)c1)c1ccc(C(=O)O)cc1 [ER-886046]
- growth of right side tumor (radiated) (CT26 tumors [1]; ER-886046 150 mg/kg po daily day 9-27 + radiation of right flank tumor day 9 and 13, vs radiation alone or ER-886046 alone): better tumor growth suppression
- growth of left side tumor (not radiated) (CT26 tumors [1]; ER-886046 150 mg/kg po daily day 9-27, radiation only to right flank tumor, vs no ER-886046 treatment): significantly reduced tumor growth rate
- ratio of Gr1+ cells among CD45+CD11b+ cells (MDSC) ([2]; ER-886046 150 mg/kg po daily 7 days + 9 Gy radiation, vs vehicle or radiation alone): reduced the ratio of Gr1^+ cells among CD45^+CD11b^+ cells
- tumor infiltration frequency of CD8+ T cells and CD11b+ myeloid cells ([2]; ER-886046 150 mg/kg po daily 7 days added to 9 Gy radiation, vs radiation alone): no additional significant effect
- anti-tumor growth activity, combination (B16F10 melanoma tumors; ER-886046 150 mg/kg po daily day 3-15 + anti-CTLA4 200/100 μg days 3, 6, 9, 12): highly significant anti-tumor activity
- animal body weight (B16F10 melanoma tumors; ER-886046 + anti-CTLA4 combination): No animal body weight loss
- anti-tumor growth activity, single agent (B16F10 melanoma tumors; alone, ER-886046 150 mg/kg po daily day 3-15, anti-CTLA4 200 μg day 3, 100 μg days 6, 9, 12): minimal activity
- gross health and animal body weight compared to radiation alone (CT26 tumors [3]; ER-886046 150 mg/kg po daily added to 9 Gy radiation): did not impact the gross health and animal body weight
- tumors with fast progression (CT26 tumors [3]; ER-886046 150 mg/kg po daily day 9-32 + radiation 9 Gy): 1 out of 12
- anti-tumor activity compared to radiation alone (CT26 tumors [3]; [4]): statistically significantly improved
- tumor growth (average tumor size) (CT26 tumors [3]; [4]): sustained tumor growth inhibition until the end of the study on day 49
- cure (complete tumor regression) (CT26 tumors [3]; ER-886046 150 mg/kg po daily day 9-32 + radiation 9 Gy, end of study): 9 out of 12
- animal survival (CT26 tumors [3]; ER-886046 150 mg/kg po daily days 17-45 + low dose radiation 3 Gy single dose day 17, vs vehicle or radiation alone): significantly increased the animal survival
- tumor recurrence in the 9 tumor-free mice (CT26 tumors [3]; cured by ER-886046 + radiation, followed for an additional 2 months): no tumor recurrence
